Results taken from ChEMBL document CHEMBL4425099, “Use of Osmotic Pumps to Establish the Pharmacokinetic-Pharmacodynamic Relationship and Define Desirable Human Performance Characteristics for Aggrecanase Inhibitors” (J Med Chem, 2016).
Calls of active or inactive are those of the source. The calls are words filed in the database; no cut-off is given here.

Experiments:
Rattus norvegicus [1] = assay: Reduction in ADAMTS-4/ADAMTS-5 mediated aggrecan cleavage products in Lewis rat model of MIA assessed as aggrecanase-cleaved fragments at 30 mg/kg, po qd administered post 3 days MIA induction measured after 4 hrs of last dosage on day 7 by NITEGE sandwich ELISA; type: functional
Rattus norvegicus [2] = assay: Reduction in ADAMTS-4/ADAMTS-5 mediated aggrecan cleavage products in Lewis rat model of MIA assessed as aggrecanase-cleaved fragments at 30 mg/kg, po bid administered post 3 days MIA induction measured after 4 hrs of last dosage on day 7 by NITEGE sandwich ELISA; type: functional
[3] = Plasma concentration in Lewis rat model of MIA at 10 mg/kg, po bid administered post 3 days MIA induction measured after 4 hrs of last dosage on day 7; type: ADME, organism-based
[4] = Cmax in Lewis rat plasma at 10 mg/kg, po; type: ADME, organism-based; design: dose 10 mg/kg, route oral
[5] = AUC in Lewis rat at 10 mg/kg, po; type: ADME, organism-based; settings: in vivo
[6] = Plasma concentration in Lewis rat at 10 mg/kg, po bid measured after 8 hrs; type: ADME, organism-based
[7] = Plasma concentration in Lewis rat model of MIA at 30 mg/kg, po bid administered post 3 days MIA induction measured after 4 hrs of last dosage on day 7; type: ADME, organism-based

SMILES | inhibition (Rattus norvegicus [1]) | inhibition (Rattus norvegicus [2]) | concentration at 4 h [3] [µM] | Cmax [4] [µM] | AUC [5] [µM·h] | concentration at 8 h [6] [µM] | concentration at 4 h [7] [µM]
C[C@@]1(O)CCCN(S(=O)(=O)c2ccc(OCc3ccc(F)cc3Cl)cc2)[C@H]1C(=O)NO | inactive | inactive | – | – | – | – | –
O=C1NC(=O)[C@](CNC(=O)c2cc3cc(Cl)ccc3o2)(c2nccs2)N1 | – | – | 30 | 33 | 130 | 2.2 | 90
